Experimental findings from PubChem BioAssay AID1996 are described below.

SMILES strings stand for the structures. Converted amounts (≈) assume the structure as drawn.

For the series the following is noted: buffer; pH 7.4; 200.0 µM.
Take `Cc1ccc(C)c(N2C(=O)C3C4C=CC(CC4)C3C2=O)c1` (stereo unspecified): the kinetic solubility was 14.9 µg/mL (≈ 53 µM).
`Cc1cc(=O)n(C)c2ccc(S(=O)(=O)N3CCOCC3)cc12` had a solubility (kinetic) of 46.5 µg/mL (≈ 144 µM).
As for `Cc1ccc(NC(=O)c2cccc(N3C(=O)C4C5C=CC(C5)C4C3=O)c2)cc1C` (stereo unspecified), the figure is 1.5 µg/mL (≈ 3.88 µM); as for `CC1=Nc2cc(C(=O)O)ccc2Sc2c(C)ccc(C)c21`, 42.1 µg/mL (≈ 142 µM); as for `COc1ccc2c(c1OC)C(=O)OC2Nc1nc2ccccc2s1` (stereo unspecified), 50.4 µg/mL (≈ 147 µM).
In turn, `COc1cccc(CN(C)C(=O)CCC(=O)c2cc(Br)ccc2OC)c1` had a solubility (kinetic) of 18.3 µg/mL (≈ 43.5 µM).
On to `CCCCc1nc2cc(C(=O)N(C)C3CCOCC3)ccc2o1`, for which the kinetic solubility is over 47.5 µg/mL.
As for `O=C(NCCCO)C(=O)Nc1cc2c3c(c1)CCN3C(=O)CC2`, the solubility (kinetic) is over 47.6 µg/mL.
In turn, `Cc1cc(NC(=O)Nc2cccc([N+](=O)[O-])c2)no1` returned a kinetic solubility of 2.2 µg/mL (≈ 8.39 µM).
Turning to `COc1ccc(NC(=O)c2ccc(NC(=O)C3CC3)cc2)cc1`, the solubility (kinetic) is under 0.3 µg/mL.
In the case of `COCCNC(=S)N(CCc1c(C)[nH]c2ccc(C)cc12)Cc1ccco1`, the kinetic solubility worked out at 15.2 µg/mL (≈ 39.4 µM).
`COc1ccc(NC(=S)N2CCCCCC2)cc1OC` gave a kinetic solubility of 42.4 µg/mL (≈ 144 µM).
`Cc1ccc(CC(=O)NCCN2CCOCC2)cc1` displayed a kinetic solubility of over 39.4 µg/mL.
As to `CCOC(=O)C1=C(COC(=O)CCc2ccc(CC)cc2)NC(=O)NC1C` (stereo unspecified), the kinetic solubility worked out at 40 µg/mL (≈ 107 µM).
As for `COC(=O)c1[nH]c2ccccc2c1NC(=O)c1ccccc1F`, the figure is 2.1 µg/mL (≈ 6.72 µM); as for `O=C(Nc1ccsc1C(=O)O)c1cccc(C(F)(F)F)c1`, over 47.3 µg/mL; as for `COC(=O)c1ccc(NC(=O)C2CC3CCC2C3)cc1` (stereo unspecified), 8.1 µg/mL (≈ 29.6 µM).
As for `O=[N+]([O-])c1cccc(-c2cnc3ccccc3n2)c1`, the figure is under 0.2 µg/mL; as for `CNS(=O)(=O)c1ccc(NC(=O)c2csc(C)c2)cc1`, 6.9 µg/mL (≈ 22.2 µM); as for `CCOC(=O)c1cc2c(=O)[nH]ccc2nc1C(F)(F)F`, over 42.9 µg/mL.
As for `C/C=C/c1ccc(OCCCCN2CCC(C)CC2)c(OC)c1`, the figure is 33.9 µg/mL (≈ 107 µM); as for `NS(=O)(=O)c1ccc(NC(=O)/C=C/c2ccco2)cc1`, 36.3 µg/mL (≈ 124 µM); as for `O=C(CN1C(=O)NC2(CCCCC2)C1=O)Nc1ccc2c(c1)CCC2`, 5.1 µg/mL (≈ 14.9 µM).
For the compound `COc1ccc(NC(=O)c2sccc2C)cn1`, the kinetic solubility is over 37.2 µg/mL.
For the compound `O=C1NS(=O)c2cc([N+](=O)[O-])cc([N+](=O)[O-])c21` (stereo unspecified), the kinetic solubility was over 38.6 µg/mL.
Compound `COc1ccc(-c2nc(N)nc(C(F)(F)F)c2-c2csc(C)n2)c(O)c1` gave a solubility (kinetic) of 2.6 µg/mL (≈ 6.8 µM).
As for `Cc1cc(C)c(NC(=O)C2CC3CCC2C3)c(C)c1` (stereo unspecified), the figure is 10.1 µg/mL (≈ 39.2 µM); as for `CCc1nnc(NC(=O)CCC(=O)NC2CC2)s1`, over 40.2 µg/mL.
The compound `O=C(Nc1ccc2[nH]ccc2c1)c1ccc(F)cc1` returned a solubility (kinetic) of over 38.1 µg/mL.
The result for `O=c1c(Cc2ccccc2)c(O)ccn1Cc1ccco1` reads 25.9 µg/mL (≈ 92.1 µM); that for `Cc1ccc(C)c(OCC(=O)Nc2ccc(N3CCOCC3)cc2)c1`, 6.1 µg/mL (≈ 17.9 µM); that for `CCOCCCNCc1cc(Br)ccc1OCC.Cl`, over 52.9 µg/mL.
`CC(C)c1ccccc1OCCNC(=O)c1cncc(Br)c1` yielded a solubility (kinetic) of 36.4 µg/mL (≈ 100 µM).
As to `O=C(NCC1CCCCC1)c1cc2ccccc2cc1O`, the solubility (kinetic) was 9.7 µg/mL (≈ 34.2 µM).
The result for `O=C(OCC(=O)N1CCN(c2ccccc2)CC1)c1ccncc1` reads over 48.8 µg/mL; that for `CC(=O)c1ccc([N+](=O)[O-])c(CS(=O)(=O)c2ccccc2)c1`, under 0.7 µg/mL; that for `Cc1cc(N2CCOCC2)nc2ccc(Cl)cc12`, 1.7 µg/mL (≈ 6.47 µM).
The compound `Cc1ccccc1NC(=O)CN1CCN(C(=O)c2ccco2)CC1` showed a solubility (kinetic) of over 49.1 µg/mL.
The result for `CCCc1ccc(C(=O)/C=C/N(C)C)cc1` reads 26.9 µg/mL (≈ 124 µM); that for `CCC(NC(=S)NC1CCCCC1)c1ccc(C(C)C)cc1` (stereo unspecified), 1.6 µg/mL (≈ 5.02 µM).
The result for `CN(CC(=O)Nc1ccc(F)c(F)c1F)C(=O)C1CCCCC1` reads over 49.3 µg/mL; that for `CCOc1cc(N2CCOCC2)c(OCC)cc1NC(=O)CSc1ncccc1C(=O)O`, over 69.2 µg/mL; that for `Fc1ccc2nc(C(F)(F)F)cc(N3CCOCC3)c2c1`, 11.3 µg/mL (≈ 37.6 µM).
As for `O=C(Oc1coc(CSc2ncccn2)cc1=O)c1ccco1`, the kinetic solubility turned out to be 46.5 µg/mL (≈ 141 µM).
Regarding `CCN(CC)S(=O)(=O)c1ccc(Cl)nc1`, the solubility (kinetic) stood at 34.3 µg/mL (≈ 138 µM).
As for `CC(=O)Nc1nc2ccccc2[nH]1`, the figure is 15.1 µg/mL (≈ 86.2 µM).
The result for `CNC(=S)N(CCO)Cc1cc2cc3c(cc2[nH]c1=O)OCO3` reads 19.6 µg/mL (≈ 58.4 µM); that for `CCN(CC(=O)NC1CCCC1)S(=O)(=O)c1ccc(F)cc1`, over 49.3 µg/mL; that for `COc1ccc(NS(=O)(=O)c2cn(C)cn2)cc1Cl`, 17 µg/mL (≈ 56.3 µM).
With `COc1cc(OC)cc(C(=O)NC(C)CCc2ccccc2)c1` (stereo unspecified), the kinetic solubility stood at 34.2 µg/mL (≈ 109 µM).
On to `Cc1nc(-c2ccc(NC(=O)C(C)(C)C)cc2)c(-c2ccccc2)o1`, for which the kinetic solubility was found to be 0.8 µg/mL (≈ 2.39 µM).

As usually defined, the kinetic solubility is the concentration staying in solution when a stock, usually in DMSO, is diluted into the medium.
